pIC50: −log10 of the molar value. Values joined by “and” are separate entries in the source; they are usually repeats but may differ in a detail not shown here. Equal values may be shown once. One block for each compound: values may come before it.
Tested on: 743489-274-T-PDC complex spheroid viability
Test: Anticancer human tumor 743489-274-T-PDC patient-derived renal cell carcinoma cell line growth inhibition
Details: for viability, T/C: stronger effect = lower value
Summary of the method: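 Complex spheroids of tumor cells with HUVEC and human MSCs, exposed to iadademstat combined with other agents. Each agent tested in half-log steps from near clinical Cmax (else 10 microM top), DMSO ≤0.25%.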

[1] = curve of first compound, second compound 0.1 µM
[2] = curve of first compound, second compound 0.316 µM
[3] = curve of first compound, second compound 1 µM
[4] = curve of first compound, second compound 3.16 µM
[5] = curve of first compound, second compound 10 µM
[6] = second compound 0.1 µM, first compound 0.00949 µM
[7] = second compound 0.1 µM, first compound 0.03 µM
[8] = second compound 0.1 µM, first compound 0.0949 µM
[9] = second compound 0.1 µM, first compound 0.3 µM
[10] = second compound 0.1 µM, first compound 0.949 µM
[11] = second compound 0.1 µM, first compound 3 µM
[12] = second compound 0.316 µM, first compound 0.00949 µM
[13] = second compound 0.316 µM, first compound 0.03 µM
[14] = second compound 0.316 µM, first compound 0.0949 µM
[15] = second compound 0.316 µM, first compound 0.3 µM
[16] = second compound 0.316 µM, first compound 0.949 µM
[17] = second compound 0.316 µM, first compound 3 µM
[18] = second compound 1 µM, first compound 0.00949 µM
[19] = second compound 1 µM, first compound 0.03 µM
[20] = second compound 1 µM, first compound 0.0949 µM
[21] = second compound 1 µM, first compound 0.3 µM
[22] = second compound 1 µM, first compound 0.949 µM
[23] = second compound 1 µM, first compound 3 µM
[24] = second compound 3.16 µM, first compound 0.00949 µM
[25] = second compound 3.16 µM, first compound 0.03 µM
[26] = second compound 3.16 µM, first compound 0.0949 µM
[27] = second compound 3.16 µM, first compound 0.3 µM
[28] = second compound 3.16 µM, first compound 0.949 µM
[29] = second compound 3.16 µM, first compound 3 µM
[30] = second compound 10 µM, first compound 0.00949 µM
[31] = second compound 10 µM, first compound 0.03 µM
[32] = second compound 10 µM, first compound 0.0949 µM
[33] = second compound 10 µM, first compound 0.3 µM
[34] = second compound 10 µM, first compound 0.949 µM
[35] = second compound 10 µM, first compound 3 µM
[36] = second compound 0.1 µM, first compound 0.0316 µM
[37] = second compound 0.1 µM, first compound 0.1 µM
[38] = second compound 0.1 µM, first compound 0.316 µM
[39] = second compound 0.1 µM, first compound 1 µM
[40] = second compound 0.316 µM, first compound 0.0316 µM
[41] = second compound 0.316 µM, first compound 0.1 µM
[42] = second compound 0.316 µM, first compound 0.316 µM
[43] = second compound 0.316 µM, first compound 1 µM
[44] = second compound 1 µM, first compound 0.0316 µM
[45] = second compound 1 µM, first compound 0.1 µM
[46] = second compound 1 µM, first compound 0.316 µM
[47] = second compound 1 µM, first compound 1 µM
[48] = second compound 3.16 µM, first compound 0.0316 µM
[49] = second compound 3.16 µM, first compound 0.1 µM
[50] = second compound 3.16 µM, first compound 0.316 µM
[51] = second compound 3.16 µM, first compound 1 µM
[52] = second compound 10 µM, first compound 0.0316 µM
[53] = second compound 10 µM, first compound 0.1 µM
[54] = second compound 10 µM, first compound 0.316 µM
[55] = second compound 10 µM, first compound 1 µM
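Further: spheroids exposed to compounds for 7 days before readout.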
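Wherever viability, T/C is given: 100% = DMSO vehicle control wells.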

Compound: Nc1ccccc1NC(=O)c1ccc(CNC(=O)OCc2cccnc2)cc1 + NC1CCC(NC2CC2c2ccccc2)CC1
pIC50 [1]: 6.03
pIC50 [2]: < 5.52
pIC50 [3]: 5.84
pIC50 [4]: 5.75
pIC50 [5]: 5.90
viability, T/C [6]: 96.2%
viability, T/C [7]: 89.4%
viability, T/C [8]: 83.7%
viability, T/C [9]: 85.4%
viability, T/C [10]: 49.3%
viability, T/C [11]: 31.2%
viability, T/C [12]: 116%
viability, T/C [13]: 92.2%
viability, T/C [14]: 88.2%
viability, T/C [15]: 82.8%
viability, T/C [16]: 61.6%
viability, T/C [17]: 52.8%
viability, T/C [18]: 107%
viability, T/C [19]: 94.8%
viability, T/C [20]: 88.9%
viability, T/C [21]: 82.9%
viability, T/C [22]: 54.4%
viability, T/C [23]: 36.2%
viability, T/C [24]: 113%
viability, T/C [25]: 97.4%
viability, T/C [26]: 97%
viability, T/C [27]: 80.5%
viability, T/C [28]: 59.4%
viability, T/C [29]: 41%
viability, T/C [30]: 107%
viability, T/C [31]: 109%
viability, T/C [32]: 87.9%
viability, T/C [33]: 79.8%
viability, T/C [34]: 57.1%
viability, T/C [35]: 29.3%

Compound: NS(=O)(=O)OCC1CC(n2ccc3c(NC4CCc5ccccc54)ncnc32)CC1O (centres undefined) + NC1CCC(NC2CC2c2ccccc2)CC1
pIC50 [1]: < 5.52
pIC50 [2]: < 5.52
pIC50 [3]: < 5.52
pIC50 [4]: < 5.52
pIC50 [5]: < 5.52
viability, T/C [6]: 98.6%
viability, T/C [7]: 103%
viability, T/C [8]: 132%
viability, T/C [9]: 133%
viability, T/C [10]: 135%
viability, T/C [11]: 144%
viability, T/C [12]: 92.8%
viability, T/C [13]: 103%
viability, T/C [14]: 121%
viability, T/C [15]: 135%
viability, T/C [16]: 146%
viability, T/C [17]: 147%
viability, T/C [18]: 114%
viability, T/C [19]: 108%
viability, T/C [20]: 113%
viability, T/C [21]: 142%
viability, T/C [22]: 135%
viability, T/C [23]: 121%
viability, T/C [24]: 98.5%
viability, T/C [25]: 107%
viability, T/C [26]: 128%
viability, T/C [27]: 141%
viability, T/C [28]: 151%
viability, T/C [29]: 151%
viability, T/C [30]: 90.1%
viability, T/C [31]: 105%
viability, T/C [32]: 132%
viability, T/C [33]: 135%
viability, T/C [34]: 129%
viability, T/C [35]: 102%

Compound: COc1ccc([C@@H](O)c2cc(-c3ncnc4cc(N5CCOCC5)ccc34)c(F)cc2Cl)nn1 + NC1CC1c1ccc(-c2cccc(O)c2)cc1
pIC50 [1]: 6.19
pIC50 [2]: 6.01
pIC50 [3]: 6.08
pIC50 [4]: 6.21
pIC50 [5]: 6.04
viability, T/C [36]: 101%
viability, T/C [37]: 93.6%
viability, T/C [38]: 63%
viability, T/C [39]: 38.6%
viability, T/C (second compound 0.1 µM, first compound 3.16 µM): 31.9%
viability, T/C (second compound 0.1 µM, first compound 10 µM): 15.4%
viability, T/C [40]: 99.7%
viability, T/C [41]: 92.7%
viability, T/C [42]: 68.8%
viability, T/C [43]: 57.4%
viability, T/C (second compound 0.316 µM, first compound 3.16 µM): 24.1%
viability, T/C (second compound 0.316 µM, first compound 10 µM): 32%
viability, T/C [44]: 94.3%
viability, T/C [45]: 93%
viability, T/C [46]: 80.2%
viability, T/C [47]: 43.4%
viability, T/C (second compound 1 µM, first compound 3.16 µM): 25%
viability, T/C (second compound 1 µM, first compound 10 µM): 16.8%
viability, T/C [48]: 93.6%
viability, T/C [49]: 94.4%
viability, T/C [50]: 59.4%
viability, T/C [51]: 41.2%
viability, T/C (second compound 3.16 µM, first compound 3.16 µM): 27.5%
viability, T/C (second compound 3.16 µM, first compound 10 µM): 17.4%
viability, T/C [52]: 99.1%
viability, T/C [53]: 111%
viability, T/C [54]: 74.3%
viability, T/C [55]: 49.5%
viability, T/C (second compound 10 µM, first compound 3.16 µM): 27.1%
viability, T/C (second compound 10 µM, first compound 10 µM): 16.6%

Compound: COc1cc(Nc2ncc3c(n2)-c2ccc(Cl)cc2C(c2c(F)cccc2OC)=NC3)ccc1C(=O)O + NC1CC1c1ccc(-c2cccc(O)c2)cc1
pIC50 [1]: < 6.00
pIC50 [2]: < 6.00
pIC50 [3]: < 6.00
pIC50 [4]: < 6.00
pIC50 [5]: < 6.00
viability, T/C (second compound 0.1 µM, first compound 0.00316 µM): 103%
viability, T/C (second compound 0.1 µM, first compound 0.01 µM): 105%
viability, T/C [36]: 82.8%
viability, T/C [37]: 72.2%
viability, T/C [38]: 82.4%
viability, T/C [39]: 81.5%
viability, T/C (second compound 0.316 µM, first compound 0.00316 µM): 97.7%
viability, T/C (second compound 0.316 µM, first compound 0.01 µM): 100%
viability, T/C [40]: 85.4%
viability, T/C [41]: 90%
viability, T/C [42]: 81.2%
viability, T/C [43]: 80.5%
viability, T/C (second compound 1 µM, first compound 0.00316 µM): 111%
viability, T/C (second compound 1 µM, first compound 0.01 µM): 91.4%
viability, T/C [44]: 84.3%
viability, T/C [45]: 74.3%
viability, T/C [46]: 74%
viability, T/C [47]: 82.5%
viability, T/C (second compound 3.16 µM, first compound 0.00316 µM): 92.9%
viability, T/C (second compound 3.16 µM, first compound 0.01 µM): 85.7%
viability, T/C [48]: 89.5%
viability, T/C [49]: 77.6%
viability, T/C [50]: 72.8%
viability, T/C [51]: 79%
viability, T/C (second compound 10 µM, first compound 0.00316 µM): 100%
viability, T/C (second compound 10 µM, first compound 0.01 µM): 102%
viability, T/C [52]: 85.3%
viability, T/C [53]: 83.5%
viability, T/C [54]: 82.9%
viability, T/C [55]: 78.4%

pIC50 (curve of compound): < 5.52
Compound: CCN(c1cc(-c2ccc(CN3CCOCC3)cc2)cc(C(=O)NCc2c(C)cc(C)[nH]c2=O)c1C)C1CCOCC1
viability, T/C (compound 0.00949 µM): 106% and 107%
viability, T/C (compound 0.03 µM): 94.5% and 105%
viability, T/C (compound 0.0949 µM): 87.8% and 92.8%
viability, T/C (compound 0.3 µM): 97.2% and 111%
viability, T/C (compound 0.949 µM): 98.5% and 105%
viability, T/C (compound 3 µM): 95.9% and 105%

pIC50 (curve of compound): < 7.00 and 7.07
Compound: CC(C)CC(NC(=O)CNC(=O)c1cc(Cl)ccc1Cl)B1OC(=O)CC(CC(=O)O)(C(=O)O)O1 (centres undefined)
viability, T/C (compound 0.000316 µM): 97.9% and 109%
viability, T/C (compound 0.001 µM): 89.1% and 112%
viability, T/C (compound 0.00316 µM): 99.5% and 94.1%
viability, T/C (compound 0.01 µM): 84.9% and 83.3%
viability, T/C (compound 0.0316 µM): 84% and 76.2%
viability, T/C (compound 0.1 µM): 58.8% and 44.4%
